Assay results from PubChem BioAssay (NCI).
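Grown in 96-well plates, cells were treated for 48 hours with each compound at five concentrations. Insufficient inhibition: endpoint recorded as highest concentration tested. GI50: concentration for 50% inhibition of growth. TGI denotes the concentration required for complete inhibition of growth.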

Key:
Assay in all cases: NCI anticancer screen, dose series, 48 h; in the data active = GI50 below about 0.43 µM; inactive = the rest
NCI-H23 lung = tested on: NCI-H23 lung
NCI-H460 lung = tested on: NCI-H460 lung
NCI-H522 lung = tested on: NCI-H522 lung
NCI/ADR-RES ovarian = tested on: NCI/ADR-RES ovarian
OVCAR-4 ovarian = tested on: OVCAR-4 ovarian
OVCAR-5 ovarian = tested on: OVCAR-5 ovarian
OVCAR-8 ovarian = tested on: OVCAR-8 ovarian
PC-3 prostate = tested on: PC-3 prostate
RPMI-8226 leukemia = tested on: RPMI-8226 leukemia
SF-268 CNS = tested on: SF-268 CNS
SF-295 CNS = tested on: SF-295 CNS
SF-539 CNS = tested on: SF-539 CNS
SK-MEL-2 melanoma = tested on: SK-MEL-2 melanoma
SK-MEL-28 melanoma = tested on: SK-MEL-28 melanoma
SK-MEL-5 melanoma = tested on: SK-MEL-5 melanoma
SK-OV-3 ovarian = tested on: SK-OV-3 ovarian
SN12C renal = tested on: SN12C renal
SNB-19 CNS = tested on: SNB-19 CNS
SNB-75 CNS = tested on: SNB-75 CNS
SR leukemia = tested on: SR leukemia
SW-620 colon = tested on: SW-620 colon
T-47D breast = tested on: T-47D breast
TK-10 renal = tested on: TK-10 renal
U251 CNS = tested on: U251 CNS
UACC-257 melanoma = tested on: UACC-257 melanoma
UACC-62 melanoma = tested on: UACC-62 melanoma
UO-31 renal = tested on: UO-31 renal

COc1cc(-c2nnc(SCc3ccc(O)c4ncccc34)n2-c2ccccc2)cc(OC)c1OC
inactive: GI50 (OVCAR-5 ovarian) 668 nM
626 nM: TGI (SK-MEL-2 melanoma)
active: GI50 (NCI-H460 lung) 50 nM | GI50 (NCI-H522 lung) 86.3 nM | GI50 (NCI/ADR-RES ovarian) 67.8 nM | GI50 (OVCAR-4 ovarian) 400 nM | GI50 (OVCAR-8 ovarian) 102 nM | GI50 (PC-3 prostate) 87.4 nM | GI50 (RPMI-8226 leukemia) 190 nM | GI50 (SF-268 CNS) 218 nM | GI50 (SF-295 CNS) 200 nM | GI50 (SF-539 CNS) 262 nM | GI50 (SK-MEL-2 melanoma) 197 nM | GI50 (SK-MEL-28 melanoma) 367 nM | GI50 (SK-MEL-5 melanoma) 207 nM | GI50 (SK-OV-3 ovarian) 302 nM | GI50 (SN12C renal) 211 nM | GI50 (SNB-19 CNS) 128 nM | GI50 (SNB-75 CNS) 229 nM | GI50 (SR leukemia) 140 nM | GI50 (SW-620 colon) 158 nM | GI50 (T-47D breast) 71.2 nM | GI50 (TK-10 renal) 291 nM | GI50 (U251 CNS) 66 nM | GI50 (UACC-257 melanoma) 342 nM | GI50 (UACC-62 melanoma) 331 nM | GI50 (UO-31 renal) 113 nM
23500 nM: TGI (SK-OV-3 ovarian)
921 nM: TGI (NCI-H522 lung)
2340 nM: TGI (UACC-62 melanoma)
991 nM: TGI (UO-31 renal)
> 100000 nM: TGI (NCI-H23 lung) | TGI (NCI/ADR-RES ovarian) | TGI (OVCAR-4 ovarian) | TGI (OVCAR-5 ovarian) | TGI (OVCAR-8 ovarian) | TGI (PC-3 prostate) | TGI (RPMI-8226 leukemia) | TGI (SF-268 CNS) | TGI (SF-295 CNS) | TGI (SK-MEL-28 melanoma) | TGI (SN12C renal) | TGI (SNB-19 CNS) | TGI (SR leukemia) | TGI (SW-620 colon) | TGI (T-47D breast) | TGI (TK-10 renal) | TGI (U251 CNS)
2030 nM: TGI (NCI-H460 lung)
3220 nM: TGI (UACC-257 melanoma)
899 nM: TGI (SK-MEL-5 melanoma)
> 20200 nM: TGI (SNB-75 CNS)
